Source: patent publication US20210059955A1, “SYSTEMS AND METHODS FOR DECRYSTALLIZATION OF URIC ACID” (RL Patents, LLC, priority 2019, published 2021)
Where two headings read alike, the source gives them in different places.

Experiments:
[1] = test subject A, over the six-month experiment
Method: (§1) The method of the experiment includes test subject A submerging an affected joint into a warm bath containing water and sodium bicarbonate. The heat was used to facilitate opening of skin pores to facilitate absorption of the active ingredient or agent. […] Control subject B submerged their affected foot into a pure water bath without any other substance or compound at 38° C. for twice a day for durations of 60 minutes, and for a total of six months. […] A phlebotomist drew a vial of blood from each subject's arm, and the samples were processed by an analyzer, model AU480, by Beckman Coulter.
(§2) Both test subject A and control subject B were diagnosed of hyperuricemia based on personal and clinical assessments, such as, e.g., multiple previous acute gout attacks, presence of swelling and tophi at the affected joint, and measured uric acid serum levels above […]. Both test subject A and control subject B were not on any medication at the time of the experiment, and maintained a low-purine diet, such as, e.g., primarily fruits, vegetables, and bread.

uric acid serum levels = settings: test subject A; for Uric acid serum level: saturated sodium bicarbonate water bath 38° C., twice a day 60 minutes
Method: as §1, §2

O=C([O-])O.[Na+] [sodium bicarbonate]
Tophi by visual inspection [1]: no longer visible
Overall course of uric acid content (uric acid serum levels; over the six-month experiment): general decline
Uric acid serum level (uric acid serum levels; August 1 2018): 6.79 mg/dL
Uric acid serum level (uric acid serum levels; August 15 2018): 6.47 mg/dL
Uric acid serum level (uric acid serum levels; December 1 2018): 5.41 mg/dL
Uric acid serum level (uric acid serum levels; December 15 2018): 5.20 mg/dL
Uric acid serum level (uric acid serum levels; July 1 2018): 6.62 mg/dL
Uric acid serum level (uric acid serum levels; July 15 2018): 6.58 mg/dL
Uric acid serum level (uric acid serum levels; June 1 2018): 6.99 mg/dL
Uric acid serum level (uric acid serum levels; June 15 2018): 7.15 mg/dL
Uric acid serum level (uric acid serum levels; November 1 2018): 5.37 mg/dL
Uric acid serum level (uric acid serum levels; November 15 2018): 5.34 mg/dL
Uric acid serum level (uric acid serum levels; October 1 2018): 5.47 mg/dL
Uric acid serum level (uric acid serum levels; October 15 2018): 5.40 mg/dL
Uric acid serum level (uric acid serum levels; September 1 2018): 5.98 mg/dL
Uric acid serum level (uric acid serum levels; September 15 2018): 5.59 mg/dL
